Results from ChEMBL document CHEMBL1759974, “Discovery of triazine-benzimidazoles as selective inhibitors of mTOR” (Bioorg Med Chem Lett, 2011).
pIC50: −log10 of the molar value.

Assays:
[1] = target: Phosphatidylinositol 4,5-bisphosphate 3-kinase catalytic subunit alpha isoform (Homo sapiens, UniProt P42336)
[2] = target: T1, Serine/threonine-protein kinase mTOR (Homo sapiens, UniProt P42345)
[3] = target: T2, Phosphatidylinositol 4,5-bisphosphate 3-kinase catalytic subunit delta isoform (Homo sapiens, UniProt O00329)
T2 sequence (O00329 whole entry): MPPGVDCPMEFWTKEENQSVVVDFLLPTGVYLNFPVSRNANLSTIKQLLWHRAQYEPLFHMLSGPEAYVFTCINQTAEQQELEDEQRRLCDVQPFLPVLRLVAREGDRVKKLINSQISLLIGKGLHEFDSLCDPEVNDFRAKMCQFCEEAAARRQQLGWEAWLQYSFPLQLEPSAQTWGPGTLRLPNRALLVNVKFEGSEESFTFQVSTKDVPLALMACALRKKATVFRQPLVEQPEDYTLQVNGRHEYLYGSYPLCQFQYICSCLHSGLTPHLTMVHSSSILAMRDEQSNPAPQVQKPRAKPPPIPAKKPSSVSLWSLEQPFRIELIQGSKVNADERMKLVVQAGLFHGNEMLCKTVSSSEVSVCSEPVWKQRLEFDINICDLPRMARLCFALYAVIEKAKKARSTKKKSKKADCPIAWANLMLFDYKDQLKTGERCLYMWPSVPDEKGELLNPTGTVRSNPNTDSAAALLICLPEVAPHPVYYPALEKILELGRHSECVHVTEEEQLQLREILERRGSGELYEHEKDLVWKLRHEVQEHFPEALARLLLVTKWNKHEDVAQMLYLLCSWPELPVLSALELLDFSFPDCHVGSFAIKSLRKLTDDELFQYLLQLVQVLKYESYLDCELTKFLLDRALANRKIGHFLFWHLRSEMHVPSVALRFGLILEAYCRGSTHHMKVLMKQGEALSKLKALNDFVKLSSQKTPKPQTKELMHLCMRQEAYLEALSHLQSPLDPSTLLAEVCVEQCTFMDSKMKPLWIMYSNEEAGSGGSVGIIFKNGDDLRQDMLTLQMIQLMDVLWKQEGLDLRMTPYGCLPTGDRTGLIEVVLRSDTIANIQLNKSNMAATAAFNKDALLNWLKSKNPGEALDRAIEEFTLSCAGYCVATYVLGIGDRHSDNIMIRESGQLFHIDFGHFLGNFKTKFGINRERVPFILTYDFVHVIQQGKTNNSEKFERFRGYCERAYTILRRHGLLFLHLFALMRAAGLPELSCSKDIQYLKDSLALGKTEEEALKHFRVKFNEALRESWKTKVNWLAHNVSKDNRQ

[4] = target: T1, Serine/threonine-protein kinase mTOR; remark: listed apart in the source
[5] = target: Phosphatidylinositol 4,5-bisphosphate 3-kinase catalytic subunit gamma isoform (Homo sapiens, UniProt P48736)
[6] = target: Phosphatidylinositol 4,5-bisphosphate 3-kinase catalytic subunit beta isoform (Homo sapiens, UniProt P42338)
[7] = target: T1, Serine/threonine-protein kinase mTOR; remark: listed apart in the source
Description: Inhibition of mTOR in human U-87 cells assessed as inhibition of phosphorylation of AKT at S473

[8] = Clearance in Sprague-Dawley rat at 1 mg/kg, iv and 2 mg/kg, po; type: ADME, organism-based; conditions: in vivo
Rattus norvegicus = experiment: AUC in Sprague-Dawley rat at 1 mg/kg, iv; type: ADME, organism-based, Plasma; set-up: dose 1 mg/kg, route intravenous; conditions: in vivo
[9] = Half life in Sprague-Dawley rat at 1 mg/kg, iv; type: ADME, organism-based; set-up: dose 1 mg/kg, route intravenous; conditions: in vivo
[10] = Oral bioavailability in Sprague-Dawley rat at 2 mg/kg; type: ADME, organism-based; conditions: in vivo
[11] = Plasma protein binding in Sprague-Dawley rat at 1 mg/kg, iv and 2 mg/kg, po; type: ADME, organism-based; conditions: read-out: PPB (converted)
[12] = Volume of distribution at steady state in Sprague-Dawley rat at 1 mg/kg, iv and 2 mg/kg, po; type: ADME, organism-based; conditions: in vivo, read-out: Vdss
[13] = Intrinsic clearance in human liver microsomes; type: ADME, Microsome
[14] = Intrinsic clearance in rat liver microsomes; type: ADME, Microsome
[15] = target: Receptor-type tyrosine-protein kinase FLT3 (Homo sapiens) (UniProt P36888); experiment: Inhibition of FLT3 at 1 uM relative to control
[16] = target: Casein kinase II subunit alpha (Homo sapiens) (UniProt P68400); experiment: Inhibition of CSNK2A1 at 1 uM relative to control
Casein kinase II subunit alpha (Homo sapiens), sequence (P68400 whole entry, looked up): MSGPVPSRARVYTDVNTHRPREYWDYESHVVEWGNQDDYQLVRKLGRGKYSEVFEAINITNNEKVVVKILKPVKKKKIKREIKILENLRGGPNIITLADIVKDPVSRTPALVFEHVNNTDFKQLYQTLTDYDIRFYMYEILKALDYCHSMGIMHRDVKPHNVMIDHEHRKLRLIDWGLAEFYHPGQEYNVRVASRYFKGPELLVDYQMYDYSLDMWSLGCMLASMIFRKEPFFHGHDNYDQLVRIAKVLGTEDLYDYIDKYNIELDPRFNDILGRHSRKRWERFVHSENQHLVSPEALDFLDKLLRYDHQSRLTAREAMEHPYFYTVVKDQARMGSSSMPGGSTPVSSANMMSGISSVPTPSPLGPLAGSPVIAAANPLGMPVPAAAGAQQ

Phosphatidylinositol 4,5-bisphosphate 3-kinase catalytic subunit gamma isoform, sequence (P48736 whole entry, canonical isoform): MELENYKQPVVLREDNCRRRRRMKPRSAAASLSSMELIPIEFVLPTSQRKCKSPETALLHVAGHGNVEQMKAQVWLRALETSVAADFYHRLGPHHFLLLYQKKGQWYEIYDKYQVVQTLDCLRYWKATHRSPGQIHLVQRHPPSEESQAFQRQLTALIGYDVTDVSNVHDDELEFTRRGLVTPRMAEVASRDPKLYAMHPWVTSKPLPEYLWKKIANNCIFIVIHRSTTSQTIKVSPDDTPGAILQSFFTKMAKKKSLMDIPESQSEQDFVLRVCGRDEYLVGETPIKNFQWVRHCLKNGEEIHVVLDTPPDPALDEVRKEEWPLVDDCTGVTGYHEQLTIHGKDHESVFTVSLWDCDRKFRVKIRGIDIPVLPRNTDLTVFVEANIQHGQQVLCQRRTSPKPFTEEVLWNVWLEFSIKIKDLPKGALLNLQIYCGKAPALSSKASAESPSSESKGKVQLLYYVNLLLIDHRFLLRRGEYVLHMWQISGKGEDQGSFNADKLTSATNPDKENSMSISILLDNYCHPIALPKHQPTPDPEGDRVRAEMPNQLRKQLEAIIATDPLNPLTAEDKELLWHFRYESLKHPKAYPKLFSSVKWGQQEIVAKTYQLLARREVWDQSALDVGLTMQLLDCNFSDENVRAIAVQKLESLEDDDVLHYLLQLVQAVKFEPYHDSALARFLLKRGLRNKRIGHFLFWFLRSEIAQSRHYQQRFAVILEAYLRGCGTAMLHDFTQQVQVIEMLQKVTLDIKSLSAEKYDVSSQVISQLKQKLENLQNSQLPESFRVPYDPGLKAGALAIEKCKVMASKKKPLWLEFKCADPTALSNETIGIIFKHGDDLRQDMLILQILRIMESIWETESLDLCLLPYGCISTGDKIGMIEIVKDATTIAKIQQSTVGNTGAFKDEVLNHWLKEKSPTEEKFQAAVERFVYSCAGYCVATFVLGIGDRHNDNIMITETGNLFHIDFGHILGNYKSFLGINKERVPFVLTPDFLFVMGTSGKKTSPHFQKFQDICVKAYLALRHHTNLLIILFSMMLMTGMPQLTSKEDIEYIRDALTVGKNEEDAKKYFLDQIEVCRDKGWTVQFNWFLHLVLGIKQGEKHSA
Phosphatidylinositol 4,5-bisphosphate 3-kinase catalytic subunit alpha isoform, sequence (P42336 whole entry, canonical isoform): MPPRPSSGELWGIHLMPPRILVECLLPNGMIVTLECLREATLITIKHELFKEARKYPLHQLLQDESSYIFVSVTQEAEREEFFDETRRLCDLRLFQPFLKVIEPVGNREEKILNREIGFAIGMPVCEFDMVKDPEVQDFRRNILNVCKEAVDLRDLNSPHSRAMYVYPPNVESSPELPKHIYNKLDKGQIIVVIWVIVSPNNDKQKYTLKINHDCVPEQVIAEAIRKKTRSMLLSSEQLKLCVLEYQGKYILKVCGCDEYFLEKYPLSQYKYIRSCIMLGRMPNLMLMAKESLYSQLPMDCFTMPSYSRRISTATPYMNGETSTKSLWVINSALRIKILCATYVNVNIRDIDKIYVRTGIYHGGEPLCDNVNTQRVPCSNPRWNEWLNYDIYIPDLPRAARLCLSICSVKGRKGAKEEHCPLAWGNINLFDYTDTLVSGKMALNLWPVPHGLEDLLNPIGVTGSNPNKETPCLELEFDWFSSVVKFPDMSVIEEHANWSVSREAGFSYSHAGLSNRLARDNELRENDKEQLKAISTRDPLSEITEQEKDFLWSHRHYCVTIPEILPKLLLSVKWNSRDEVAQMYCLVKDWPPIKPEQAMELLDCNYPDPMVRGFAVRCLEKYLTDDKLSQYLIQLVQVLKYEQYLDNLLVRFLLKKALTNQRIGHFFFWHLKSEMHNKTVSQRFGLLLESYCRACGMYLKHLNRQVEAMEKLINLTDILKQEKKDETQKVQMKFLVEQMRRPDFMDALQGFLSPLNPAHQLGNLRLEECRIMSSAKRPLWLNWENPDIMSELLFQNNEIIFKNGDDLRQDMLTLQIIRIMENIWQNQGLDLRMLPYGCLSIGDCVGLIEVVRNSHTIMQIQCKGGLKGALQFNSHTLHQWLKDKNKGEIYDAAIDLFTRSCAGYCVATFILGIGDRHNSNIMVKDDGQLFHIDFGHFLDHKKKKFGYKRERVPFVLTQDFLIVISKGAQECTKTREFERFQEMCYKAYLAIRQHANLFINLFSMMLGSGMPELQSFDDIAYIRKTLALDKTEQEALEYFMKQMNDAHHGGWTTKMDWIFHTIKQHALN
Phosphatidylinositol 4,5-bisphosphate 3-kinase catalytic subunit beta isoform, sequence (P42338 whole entry, canonical isoform): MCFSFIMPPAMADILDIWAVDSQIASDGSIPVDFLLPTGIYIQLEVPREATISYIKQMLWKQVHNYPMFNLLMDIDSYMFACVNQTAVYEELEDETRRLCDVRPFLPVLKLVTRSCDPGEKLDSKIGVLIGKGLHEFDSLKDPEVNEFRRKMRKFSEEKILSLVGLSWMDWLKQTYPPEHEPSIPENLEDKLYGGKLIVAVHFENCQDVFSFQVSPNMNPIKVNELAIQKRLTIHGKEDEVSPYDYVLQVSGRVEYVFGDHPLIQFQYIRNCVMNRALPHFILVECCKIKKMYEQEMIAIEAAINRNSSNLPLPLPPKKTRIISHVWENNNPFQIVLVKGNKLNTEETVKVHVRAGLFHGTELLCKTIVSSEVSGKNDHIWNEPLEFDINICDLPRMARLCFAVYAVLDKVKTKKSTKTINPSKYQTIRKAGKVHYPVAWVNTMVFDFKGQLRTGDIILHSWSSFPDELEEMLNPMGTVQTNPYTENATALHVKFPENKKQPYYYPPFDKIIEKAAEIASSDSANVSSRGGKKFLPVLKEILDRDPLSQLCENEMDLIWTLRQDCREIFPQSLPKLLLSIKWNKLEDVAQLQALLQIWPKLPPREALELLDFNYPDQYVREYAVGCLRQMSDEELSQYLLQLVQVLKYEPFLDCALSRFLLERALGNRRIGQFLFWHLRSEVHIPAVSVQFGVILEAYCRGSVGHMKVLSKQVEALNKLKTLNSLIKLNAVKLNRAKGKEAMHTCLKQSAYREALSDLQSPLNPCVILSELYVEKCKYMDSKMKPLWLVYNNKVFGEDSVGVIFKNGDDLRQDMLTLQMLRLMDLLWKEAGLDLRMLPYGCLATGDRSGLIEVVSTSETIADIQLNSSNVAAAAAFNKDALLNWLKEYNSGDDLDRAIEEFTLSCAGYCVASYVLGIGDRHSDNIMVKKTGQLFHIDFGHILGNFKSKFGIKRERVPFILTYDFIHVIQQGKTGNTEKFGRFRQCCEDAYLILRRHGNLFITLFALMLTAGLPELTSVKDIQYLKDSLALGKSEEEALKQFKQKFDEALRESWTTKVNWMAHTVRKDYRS
Receptor-type tyrosine-protein kinase FLT3 (Homo sapiens), sequence (P36888 whole entry): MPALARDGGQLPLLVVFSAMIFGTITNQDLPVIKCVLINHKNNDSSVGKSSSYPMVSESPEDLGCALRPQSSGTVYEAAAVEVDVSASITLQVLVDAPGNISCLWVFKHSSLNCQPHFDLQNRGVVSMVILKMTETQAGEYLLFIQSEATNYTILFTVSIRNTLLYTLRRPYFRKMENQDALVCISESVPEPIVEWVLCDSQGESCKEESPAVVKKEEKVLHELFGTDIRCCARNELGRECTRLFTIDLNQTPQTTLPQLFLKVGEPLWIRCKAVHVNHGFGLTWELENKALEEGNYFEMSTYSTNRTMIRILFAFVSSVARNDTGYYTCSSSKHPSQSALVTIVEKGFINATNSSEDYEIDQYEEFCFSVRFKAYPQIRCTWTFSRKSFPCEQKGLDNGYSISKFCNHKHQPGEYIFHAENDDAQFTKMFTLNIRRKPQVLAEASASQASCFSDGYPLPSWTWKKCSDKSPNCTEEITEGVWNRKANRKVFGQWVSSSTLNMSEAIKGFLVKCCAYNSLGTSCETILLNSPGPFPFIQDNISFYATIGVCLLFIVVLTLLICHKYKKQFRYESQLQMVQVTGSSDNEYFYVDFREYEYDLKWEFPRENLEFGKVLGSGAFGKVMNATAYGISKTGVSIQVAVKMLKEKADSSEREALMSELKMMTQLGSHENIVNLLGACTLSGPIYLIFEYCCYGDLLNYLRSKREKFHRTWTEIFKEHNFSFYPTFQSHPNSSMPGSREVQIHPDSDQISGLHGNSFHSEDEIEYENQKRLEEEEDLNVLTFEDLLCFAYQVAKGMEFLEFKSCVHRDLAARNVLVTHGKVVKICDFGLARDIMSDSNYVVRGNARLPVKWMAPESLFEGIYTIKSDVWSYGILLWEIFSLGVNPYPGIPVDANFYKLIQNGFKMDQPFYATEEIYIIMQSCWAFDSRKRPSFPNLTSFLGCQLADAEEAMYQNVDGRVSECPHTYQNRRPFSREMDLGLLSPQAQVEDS

pIC50 [1] | pIC50 [2] | pIC50 [3] | pIC50 [4] | pIC50 [5] | pIC50 [6] | pIC50 [7] | clearance [8] [mL/min/kg] | AUC (Rattus norvegicus) [nM] | half-life [9] [min] | bioavailability [10] [%] | fraction unbound [11] | Vd [12] [L/kg] | microsomal CLint [13] [µL/min/mg] | microsomal CLint [14] [µL/min/mg] | inhibition [15] [%] | inhibition [16] [%] | SMILES
5.80 | < 4.60 | 6.15 | 4.67 | 7.52 | 5.62 | 6.17 | – | – | – | – | – | – | – | – | – | – | Cc1nc(N)nc(-n2c(NC3CCOCC3)nc3ccccc32)n1
7.38 | 5.92 | – | 7.06 | – | – | 7.37 | – | – | – | – | – | – | – | – | – | – | Cc1nc(N)cc(-n2c(Nc3cccc(O)c3)nc3ccccc32)n1
6.47 | 5.20 | – | 6.41 | – | – | 6.39 | – | – | – | – | – | – | – | – | – | – | CCc1nc(N)nc(-n2c(Nc3cccc(O)c3)nc3ccccc32)n1
6.59 | < 4.60 | 6.44 | 6.38 | 6.33 | 6.00 | 6.72 | – | – | – | – | – | – | – | – | – | – | Cc1nc(N)nc(-n2c(Nc3ccccc3)nc3ccccc32)n1
– | < 4.60 | – | 4.48 | – | – | 5.34 | – | – | – | – | – | – | – | – | – | – | Cc1nc(N)nc(-n2c(Nc3nc[nH]n3)nc3ccccc32)n1
8.22 | 6.47 | 7.96 | 8.70 | 7.89 | 7.77 | 7.96 | – | – | – | – | – | – | – | – | – | – | CNC(=O)Nc1ccc(Nc2nc3ccccc3n2-c2nc(C)nc(N)n2)cc1
– | 6.47 | 6.96 | 7.62 | 6.60 | 6.00 | 7.35 | 50 | 964 | 42 | 6 | 0.01 | 3 | – | – | – | – | Cc1nc(N)nc(-n2c(Nc3ccn[nH]3)nc3cc(F)c(F)cc32)n1
6.28 | < 4.60 | 6.85 | 6.82 | 7.59 | 5.74 | 6.17 | – | – | – | – | – | – | – | – | – | – | CNC(=O)c1ccc(Nc2nc3ccccc3n2-c2nc(C)nc(N)n2)o1
6.70 | 5.82 | 6.49 | 7.57 | 6.70 | 6.20 | 6.92 | – | – | – | – | – | – | – | – | – | – | Cc1nc(N)nc(-n2c(Nc3ccc4cn[nH]c4c3)nc3ccccc32)n1
5.44 | < 4.60 | – | 4.68 | – | – | 5.62 | – | – | – | – | – | – | – | – | – | – | Oc1cccc(Nc2nc3ccccc3n2-c2ncnc(NCc3ccccn3)n2)c1
6.72 | 5.54 | – | 6.60 | – | – | 6.74 | – | – | – | – | – | – | – | – | – | – | CNc1ncnc(-n2c(Nc3cccc(O)c3)nc3ccccc32)n1
5.70 | < 4.60 | – | 5.52 | – | – | 5.80 | – | – | – | – | – | – | – | – | – | – | Oc1cccc(Nc2nc3ccccc3n2-c2ncncn2)c1
7.49 | 6.42 | – | 8.10 | – | – | 7.77 | – | – | – | – | – | – | – | – | – | – | Cc1nc(NCC#N)nc(-n2c(Nc3cccc(O)c3)nc3ccccc32)n1
6.02 | 5.38 | 6.57 | 7.22 | 6.72 | 6.38 | 6.60 | – | – | – | – | – | – | – | – | – | – | Cc1nc(N)nc(-n2c(Nc3n[nH]c4ccccc34)nc3ccccc32)n1
5.21 | 5.28 | 5.34 | 6.57 | 5.39 | 4.54 | 6.24 | – | – | – | – | – | – | – | – | – | – | Cc1nc(N)nc(-n2c(Nc3ccn(C)n3)nc3ccccc32)n1
7.64 | 6.47 | 7.15 | 7.89 | 7.70 | 6.39 | 6.74 | – | – | – | – | – | – | – | – | – | – | CC(=O)Nc1ccc(Nc2nc3ccccc3n2-c2nc(C)nc(N)n2)cc1
6.34 | 5.28 | 6.16 | 6.72 | 6.21 | 6.00 | 6.74 | – | – | – | – | – | – | – | – | – | – | Cc1nc(N)nc(-n2c(Nc3cn[nH]c3)nc3ccccc32)n1

pIC50 [1] | pIC50 [2] | pIC50 [3] | pIC50 [4] | pIC50 [5] | pIC50 [6] | pIC50 [7] | clearance [8] [mL/min/kg] | AUC (Rattus norvegicus) [nM] | half-life [9] [min] | bioavailability [10] [%] | fraction unbound [11] | Vd [12] [L/kg] | microsomal CLint [13] [µL/min/mg] | microsomal CLint [14] [µL/min/mg] | inhibition [15] [%] | inhibition [16] [%] | SMILES
6.08 | 5.48 | 5.89 | 6.82 | 5.64 | 5.51 | 6.59 | 30 | 1930 | 30 | – | 0.023 | 1.4 | 39 | 46 | – | – | Cc1nc(N)nc(-n2c(Nc3ccon3)nc3ccccc32)n1
5.44 | < 4.60 | – | < 4.30 | – | – | 5.49 | – | – | – | – | – | – | – | – | – | – | Oc1cccc(Nc2nc3ccccc3n2-c2ncnc(NCC(F)(F)F)n2)c1
6.64 | 6.02 | 6.62 | 7.55 | 6.47 | 6.00 | 6.85 | – | – | – | – | – | – | – | – | – | – | Cc1nc(N)nc(-n2c(Nc3ccc4cc[nH]c4c3)nc3ccccc32)n1
6.43 | 5.05 | – | 6.43 | – | – | 6.22 | – | – | – | – | – | – | – | – | – | – | Cc1nccc(-n2c(Nc3cccc(O)c3)nc3ccccc32)n1
6.20 | 5.82 | 6.05 | 6.54 | 6.96 | 5.85 | 6.92 | – | – | – | – | – | – | – | – | – | – | CC(=O)Nc1cccc(Nc2nc3ccccc3n2-c2nc(C)nc(N)n2)c1
9.22 | 7.01 | 9.40 | 9.70 | 8.30 | 9.70 | 8.30 | – | – | – | – | – | – | – | – | – | – | Cc1nc(N)nc(-n2c(Nc3cc(O)cc(O)c3)nc3ccccc32)n1
8.40 | 6.82 | 8.52 | 8.15 | 8.10 | 8.05 | 8.05 | – | – | – | – | – | – | – | – | 14 | 15 | Cc1nc(N)nc(-n2c(Nc3cccc(O)c3)nc3ccccc32)n1
5.72 | < 4.60 | 5.48 | < 4.30 | 5.64 | 5.16 | 6.27 | – | – | – | – | – | – | – | – | – | – | Cc1nc(N)nc(-n2c(Nc3ccnn3C)nc3ccccc32)n1
6.14 | < 4.60 | – | 5.64 | – | – | 6.06 | – | – | – | – | – | – | – | – | – | – | Oc1cccc(Nc2nc3ccccc3n2-c2ncnc(Nc3ccccc3)n2)c1
6.28 | 4.67 | – | < 4.30 | – | – | 5.68 | – | – | – | – | – | – | – | – | – | – | COc1nc(NCC#N)nc(-n2c(Nc3cccc(O)c3)nc3ccccc32)n1
5.46 | < 4.60 | – | 5.33 | – | – | 5.58 | – | – | – | – | – | – | – | – | – | – | CCCc1nc(N)nc(-n2c(Nc3cccc(O)c3)nc3ccccc32)n1
4.98 | 5.19 | 6.28 | 6.47 | 6.07 | 4.65 | 6.11 | – | – | – | – | – | – | – | – | – | – | Cc1nc(N)nc(-n2c(Nc3ccn(C(F)F)n3)nc3ccccc32)n1
5.77 | < 4.60 | – | < 4.30 | – | – | 5.72 | – | – | – | – | – | – | – | – | – | – | COc1ncnc(-n2c(Nc3cccc(O)c3)nc3ccccc32)n1
6.89 | 6.15 | – | 7.68 | – | – | 7.47 | – | – | – | – | – | – | – | – | – | – | Nc1ncnc(-n2c(Nc3cccc(O)c3)nc3ccccc32)n1
5.40 | 5.85 | 5.34 | 7.10 | 5.43 | 5.43 | 6.82 | – | – | – | – | – | – | – | – | – | – | C#CCNc1nc(C)nc(-n2c(Nc3ccn[nH]3)nc3ccccc32)n1
6.54 | 5.41 | 7.40 | 6.76 | 6.32 | 5.99 | 6.72 | – | – | – | – | – | – | – | – | – | – | Cc1nc(N)nc(-n2c(Nc3cccc(C(N)=O)c3)nc3ccccc32)n1
6.00 | 5.46 | – | 6.96 | – | – | 6.38 | – | – | – | – | – | – | – | – | – | – | Nc1cc(-n2c(Nc3cccc(O)c3)nc3ccccc32)ncn1
